# Source: patent US5968526A, “T cell epitopes of the major allergens from Dermatophagoides (house dust mite)” (Immulogic Pharamaceutical Corporation, priority 1995, dated 1999)
# Tested on: T cell lines primed in vitro with Der p I
# Assay: T cell proliferation with fine map and modified Group I peptides (Example XIV)
# Type: cell-based, human
# Settings: FIGS. 31a-b
# Method: (§1) Long term T cell lines were established by stimulation of 2×10^6 PBL/ml in bulk cultures of complete medium (RPMI-1640, 2 mM L-glutamine, 100 U/ml penicillin/streptomycin, 5×10^-5 M 2-mercaptoethanol, and 10 mM HEPES supplemented with 5% heat inactivated human AB serum) with 30 μg/ml of purified native Der p I or Der p II for 5-6 days at 37° C. in a humidified 5% CO2 incubator to select for house dust mite protein allergen reactive T cells. This amount of priming antigen was determined to be optimal for the activation of T cells from house dust mite allergic patients. Viable cells were purified by LSM centrifugation and cultured in complete medium supplemented with 5 units recombinant human IL-2/ml and 5 units recombinant human IL-4/ml for up to three weeks until the cells no longer responded to lymphokines and were considered "rested". The ability of the T cells to proliferate to selected peptides, purified Der p I or Der p II, or positive (PHA) controls or negative controls (medium only) was then assessed. For assay, 2×10^4 rested cells were restimulated in the presence of 2×10^4 autologous Epstein-Barr virus (EBV)-transformed B cells (prepared as described below) (gamma-irradiated with 25,000 RADS) or with 5×10^4 autologous PBMs (gamma-irradiated with 3500 RADS), with 2-50 μg/ml of purified native Der p I or Der p II in a volume of 200 μl complete medium in duplicate or triplicate wells in 96-well round bottom plates for 3 days. Each well then received 1 μCi tritiated thymidine for 16-20 hours. The counts incorporated were collected onto glass fiber filter mats and processed for liquid scintillation counting. […] The titrations were used to optimize the dose of peptides in T cell assays.
# (§2) The maximum response in a titration of each peptide is expressed as the stimulation index (S.I.). The S.I. is the counts per minute (CPM) incorporated by cells in response to peptide, divided by the CPM incorporated by cells in medium only. […] The positive results were used in calculating mean stimulation indices for each peptide for the individual patient tested.
# (§3) The above procedure was followed with 18 patients in the studies using peptides derived from Der p I and Der f I (FIGS. 31a-b), and 21 patients in the studies with Der p II peptides (FIGS. 32a-b). Individual patient results were used in calculating the mean S.I. for each peptide if the patient responded to the Der p I or Der p II protein at an S.I. of 2.0 or greater and the patient responded to at least one peptide derived from a house dust mite allergen at an S.I. f 2.0 or greater. A summary of positive experiments from the patients tested is shown in FIGS. 32a and 32b and FIGS. 33a and 33b. The bars represent the positivity index. […] In parenthesis above each bar are the mean stimulation indices for each peptide or protein for the group of patients tested.
# (§4) Autologous EBV-transformed cell lines were γ-irradiated with 25,000 Rad and used as antigen presenting cells in secondary proliferation assays and secondary bulk stimulations. These EBV-transformed cell lines were made by incubating 5×10^6 PBL with 1 ml of B-59/8 Marmoset cell line (ATCC CRL1612, American Type Culture Collection, Rockville, Md.) conditioned medium in the presence of 1 μg/ml phorbol 12-myristate 13-acetate (PMA) at 37° C. for 60 minutes in 12×75 mm polypropylene round-bottom Falcon snap cap tubes (Becton Dickinson Labware, Lincoln Park, N.J.). These cells were then diluted to 1.25×10^6 cells/ml in RPMI-1640 as described above except supplemented with 10% heat-inactivated fetal bovine serum and cultured in 200 μl aliquots in flat bottom culture plates until visible colonies were detected. They were then transferred to larger wells until the cell lines were established.
row,Substance,"T cell response, Group I peptides"
1,DF I-22.4: Der f I peptide (VAATESAYLAYRNTSLDLSEQELVDCASQ),positive responses
2,"DP I-11.1: Der p I peptide, native sequence (HRNQSLDLAEQELVDCASQHGC)",positive response
3,DP I-21.1: Der p I peptide (TNACSINGNAPAEIDLRQMRTVTPIRMQ),positive response
4,DP I-22.4: Der p I peptide (VAATESAYLAHRNQSLDLAEQELVDCASQ),positive responses
5,DP I-23.1: Der p I peptide (EYIQHNGVVQESYYRYVAREQCRRPNAQ),positive T cell studies
6,DP I-26.1: Der p I peptide (IIGIKDLDAFRHYDGRTIIQRDNGYQ),positive T cell studies

# Tested on: human IgE
# Assay: direct binding ELISA of IgE to mite allergen proteins and peptides
# Settings: plasma of 19 mite-allergic patients and pool of 18; Example XV
# Method: The coating antigens were removed and the wells are blocked with 0.5% gelatin in PBS, 300 μl/well for 2 hours at room temperature. Pooled human plasma (a mix of plasma samples from 20 patients that were skin test positive for commerical mite extract) was serially diluted with PBS-Tween 20 (PBS with 0.05% nonionic detergent Tween-20 Sigma, St. Louis, Mo.) and 100 μl/well a.backslash.was added and incubated overnight at 4° C. (plasma dilutions were tested in duplicate). The second antibody (biotinylated goat anti-Human IgE, 1:1000, Kirkegaard & Perry Laboratories Inc, Gaithersburg, Md.), was added at 100 μl/well for one hour at room temperature. This solution was removed and streptavidin-HRPO, 1:10000, (Southern Biotechnology Associates, Inc., Birmingham, Ala.) was then added at 100 μl/well for one hour at room temperature (all wells are washed three times with PBS-Tween between each incubation step). TMB Membrane Peroxidase Substrate system (Kirkegaard & Perry Laboratories) was freshly miced, and added at […]. The color was allowed to develop for 2-5 minutes. The reaction was stopped by the addition of […] of 1M phosphoric acid. Plates were read on a Microplate IL310 Autoreader (Biotech Instruments, Winooski, Vt.) with a 450 nm filter. The absorbance levels of duplicate wells were averaged. The order of coating antigens listed vertically in these figure legends corresponds in orDer from left to right to the coating antigens listed for each histogram.
# The antigen preparation that was used as a positive control was a mixture of the four major biochemically purified mite allergens (term PMA for Purified Mite Allergen); Der f I, Der f II, Der p I and Der p II. The stock was generated at a concentration of 100 μgs of each protein per millimeter or 400 μgs total protein/ml. This preparation was used on each coated ELISA plate.
row,"IgE binding (ELISA), modified peptides",Substance
1,No plasma samples contained IgE,DP II-20.8: modified Der p II peptide (DQVDVKDCANHEIKKVLVPGCHGSEPK)
2,No plasma samples contained IgE,DP II-20.10: modified Der p II peptide (DQVDVKDCANHEIKKVLVPGCHGSEG)
3,No plasma samples contained IgE,DP II-20.11: modified Der p II peptide; printed with the same SEQ ID NO as DP II-20.9 (DQVDVKDCANHEIKKVLVPGCHGSE)
4,No plasma samples contained IgE,DP II-22.19: DKELEAVFEANQNTKTAKIEIKAD
5,No plasma samples contained IgE,DP II-22.22: DKELEAVFEANQNTKTAKIEIKK
6,No plasma samples contained IgE,DP II-22.23: DKELEAVFEANQNTKTAKIED
7,No plasma samples contained IgE,DP II-25.9: modified Der p II peptide (DKTVKVMGDDGVLACAIATHAKIRDKE)

# Tested on: T cell lines primed in vitro with Der p II
# Assay: T cell proliferation with fine map and modified Group II peptides (Example XIV)
# Type: cell-based, human
# Settings: 21 T cell lines; Der p II primed; FIG. 32a
# Method: as §1, §2, §3, §4
row,Substance,"positive T cell responses, modified peptides"
1,DP II-20.8: modified Der p II peptide (DQVDVKDCANHEIKKVLVPGCHGSEPK),all 21 T cell lines responded positively
2,DP II-20.10: modified Der p II peptide (DQVDVKDCANHEIKKVLVPGCHGSEG),all 21 T cell lines responded positively
3,DP II-20.11: modified Der p II peptide; printed with the same SEQ ID NO as DP II-20.9 (DQVDVKDCANHEIKKVLVPGCHGSE),all 21 T cell lines responded positively
4,DP II-22.19: DKELEAVFEANQNTKTAKIEIKAD,all 21 T cell lines responded positively
5,DP II-22.22: DKELEAVFEANQNTKTAKIEIKK,all 21 T cell lines responded positively
6,DP II-22.23: DKELEAVFEANQNTKTAKIED,all 21 T cell lines responded positively
7,DP II-25.9: modified Der p II peptide (DKTVKVMGDDGVLACAIATHAKIRDKE),all 21 T cell lines responded positively

# Same assay, conditions: FIGS. 32a-b
row,Substance,"T cell response, Group II peptides"
1,DP II-20.10: modified Der p II peptide (DQVDVKDCANHEIKKVLVPGCHGSEG),positive T cell studies
2,DP II-20.11: modified Der p II peptide; printed with the same SEQ ID NO as DP II-20.9 (DQVDVKDCANHEIKKVLVPGCHGSE),positive T cell studies
3,DP II-22.19: DKELEAVFEANQNTKTAKIEIKAD,positive T cell studies
4,DP II-22.22: DKELEAVFEANQNTKTAKIEIKK,positive T cell studies
5,DP II-22.23: DKELEAVFEANQNTKTAKIED,positive T cell studies
6,DP II-25.9: modified Der p II peptide (DKTVKVMGDDGVLACAIATHAKIRDKE),positive T cell studies

# Tested on: T cell lines primed in vitro to Der p I
# Assay: secondary proliferation of Der p I-primed T cell lines (Examples V, VII, XI)
# Type: cell-based, human
# Settings: 33 positive experiments; FIG. 13
# Method: 10^7 PBMC from individual 543 were cultured in 10 ml RPMI-1640 containing 5% pooled human AB serum and supplemented with glutamine, penicillin, streptomycin and HEPES buffer in the presence of 20 μg/ml purified native Der p I/ml at 37° C. for 7 days. Viable cells were then purified by Ficoll-Hypaque centrifugation and cultured for 2 additional weeks in RPMI-1640/5% AB serum containing 5 units recombinant human IL-2/ml and 5 units recombinant human IL-4/ml. The resting T cells were then tested in a secondary proliferation assay to assess T cell responses to various house dust mite proteins and peptides. For assay, 2×10^4 resting T cells were cultured in 200 μl of RPMI-1640/5% AB serum for 3 days at 37° C. in the presence of 2×10^4 autologous Epstein-Barr virus transformed B cells (20,000 Rads) as antigen presenting cells with various concentrations of purified native Der p I or synthetic Der p I peptides. Each well then received 1 μCi tritiated thymidine for 16 hours. The counts incorporated were collected onto glass fiber filters and processed for liquid scintillation counting. Medium alone, acting as negative control, contained no allergen or peptide. The results of this experiment indicate that this particular patient responds with an S.I. of at least 2.0 to several peptides derived from the Der p I protein, including DP I-1, DP I-2, DP I-4, DP I-11, DP I-5, DP I-13, DP I-15, DP I-6.1, DP I-8, DP I-9, DP I-16, DP I-10 and DP I-17 (data not shown).
# The above procedure was followed with a number of other house dust mite allergic individuals except a) in individual cases, the length of time of cultivation with IL-2 and IL-4 varied; b) in individual cases, the T cells were primed with either purified native (N) or recombinant (R) Der p I protein at either 20 μg/ml or 10 μg/ml; and c) in individual cases, x-irradiated (3500 Rads) autologous PBMC were used as antigen presenting cells in the secondary proliferation assay.
# Individual results were considered positive and used if the individual responded to the Der p I protein and at least one peptide derived from Der p I at an S.I. of 2.0 or greater. The resting T cell lines primed with recombinant or native Der p I-stimulated PBMC were tested for reactivity to synthetic Der p I peptides. The maximum response for each peptide in a titration of the antigen is expressed as the T cell stimulation index (S.I.). The S.I. is the counts-per-minute (CPM) incorporated by cells in response to the peptide divided by the CPM incorporated by cells in medium only. […] However, only individual S.I. values greater than or equal to 2.0 (a response two-fold or greater over background), referred to herein as "positive" results, were used in calculating mean T cell stimulation indices for each peptide for the patient or group of patients tested. […] The T cell stimulation index is calculated by: [formula]
# The bar represents the cumulative rank of the peptide response in the group of patients. To determine the cumulative rank, the 5 peptides with the highest S.I. in each individual were determined and assigned a numerical rank in descending order, with 5 representing the strongest response. The ranks for each peptide were then summed in the group of patients to determine the cumulative rank for the peptide. […] Given the percent positive and the mean T cell stimulation index, the positivity index (P.I.) for each peptide can be calculated.
# The Der p I and Der f I proteins are very homologous (81% identity). Thus, experiments, similar to those of Example V, were carried out to determine the T cell responses of Der p I primed T cell lines when challenged with various Der p I peptides and substantially matching […].
# The results of T cell studies using selected peptides derived from the Der p I, the Der f I, the Der p II and the Der f II proteins are shown in FIGS. 13-18a-d. […]
row,Substance,T cell response to selected Der p I peptides
1,DP I-21.1: Der p I peptide (TNACSINGNAPAEIDLRQMRTVTPIRMQ),respond significantly
2,DP I-23.1: Der p I peptide (EYIQHNGVVQESYYRYVAREQCRRPNAQ),respond significantly
3,DP I-26.1: Der p I peptide (IIGIKDLDAFRHYDGRTIIQRDNGYQ),respond significantly

# Same assay, conditions: DP I-11/12 vs DP I-11.1/12.1
row,Substance,"difference in mean S.I. or percentage of positive responses, original vs additional (native sequence) peptides"
1,"DP I-11.1: Der p I peptide, native sequence (HRNQSLDLAEQELVDCASQHGC)",no significant difference

# Same assay, conditions: Der p I primed; 30 positive experiments; FIG. 15a
row,Substance,T cell response to selected Der f I peptides
1,DF I-22.4: Der f I peptide (VAATESAYLAYRNTSLDLSEQELVDCASQ),respond significantly

# Same assay, conditions: FIG. 15b; preferred peptides
row,Substance,ranked sum of peptide responses
1,DP I-23.1: Der p I peptide (EYIQHNGVVQESYYRYVAREQCRRPNAQ),highest ranked sum

# Same assay, conditions: mean S.I. × percent responders; 33 patients
row,Substance,positivity index (P.I.)
1,DP I-21.1: Der p I peptide (TNACSINGNAPAEIDLRQMRTVTPIRMQ),at least 150
2,DP I-23.1: Der p I peptide (EYIQHNGVVQESYYRYVAREQCRRPNAQ),at least 150
3,DP I-26.1: Der p I peptide (IIGIKDLDAFRHYDGRTIIQRDNGYQ),at least 150
